From patent publication US8367831B2, “Heterocyclic compound or salt thereof and intermediate thereof” (priority 2006, dated 2013) come the findings set out here.

Where a name gives a salt, the structure may show the parent alone.

Series [1] in a line: Hygroscopicity of the salt (statement). The format is physicochemical. Conditions: trihydrochloride salt.
The subject of the next series is S. aureus F-3095. Briefly: Susceptibility test 1: MIC by micro-dilution method. The series is classed as cell-based. The settings on record: Staphylococcus aureus, F3095, read-out: MIC (μg/mL) S. aureus F-3095. The procedure: (§1) Test substances were initially dissolved in dimethylsulfoxide. Antibacterial activities (MICs) of the same compounds were determined by the micro-dilution method as recommended by the Japanese Society of Chemotherapy.
(§2) The bacteria cultured on Mueller-Hinton agar (MHA) plates at 35° C. overnight were suspended in sterile physiological saline in a concentration that was equivalent to 0.5 McFarland. The bacterial inoculum was prepared by 10-fold dilution of this suspension. Approximately 0.005 mL of the bacterial inoculum was inoculated into Cation-adjusted Mueller-Hinton broth (CAMHB, 100 μL/well) containing the test substance and was incubated at 35° C. overnight. The lowest concentration of the test substance at which no bacterial growth was macroscopically observed was determined as the MIC.
(In general: In broth dilution the organism is exposed to a series of concentrations in liquid medium.)

Another series concerns S. aureus FDA209P. The series is described as above. The format is cell-based. Conditions: Staphylococcus aureus, read-out: MIC (μg/mL) S. aureus FDA209P. The procedure: as §1, §2
Series [2] concerns Staphylococcus aureus (S. aureus Smith). In words: S. aureus infection experiment in mice. The series is classed as in vivo. Conditions: ICR mice, five per group; intraperitoneal infection; 1 mg/kg subcutaneously once, 1 hour after infection. As for the experimental part: ICR mice (male, SPF grade, 4-week old, five mice per group) were used. A bacterial inoculum was prepared by suspending Staphylococcus aureus (S. aureus
Smith), which was cultured on a Mueller-Hinton agar plate at 37° C. overnight, in sterile physiological saline, preparing a bacterial solution of about 4×10^8 CFU/mL, and diluting the solution 10-fold in 5.6% mucin-phosphate buffer. ICR mice were intraperitoneally administered with the bacterial inoculum (approximately 2×10^7 CFU/mouse) to induce infection. Test substances were dissolved in 10% hydroxypropyl-β-cyclodextrin and 0.05 mol/L hydrochloric acid. […] The number of surviving mice was recorded on 5 days after the infection.

The nature of another series: Cytotoxicity test (XTT). The format is cell-based. The settings on record: African green monkey, vero cells, 3 days incubation, absorbance 450 nm, read-out: CC50 (concentration when cell proliferation was inhibited by 50%). The procedure:
Each test substance was dissolved in dimethyl sulfoxide and was prepared to each concentration with E-MEM containing 10% FBS, and then 0.1 mL of this solution was dispensed into each well of a 96-well microplate. A vero cell suspension containing 3×10^4 cells/mL was prepared with E-MEM containing 10% FBS, and 0.1 mL of the suspension was inoculated to each well. After incubation in 5% CO2 at 37° C. for 3 days, 50 μL of E-MEM containing 1 mg/mL of 2,3-bis-(2-methoxy-4-nitro-5-sulfophenyl)-5-[(phenylamino)carbonyl]-2H-tetrazolium, inner salt, monosodium salt (XTT) and 25 μM of phenazine methosulfate (PMS) was added to each well. After about 2 hours, the absorbance at 450 nm was measured with a microplate reader.
The absorbance ratio of each well supplied with the test substance and the control not containing the test substance was calculated, and the concentration of each compound when cell proliferation was inhibited by 50% (CC50; μg/mL) was calculated.

Series [3] is described as follows: Antimicrobial activity (general statement). The settings on record: qualitative statement, no comparator named.
Series [4] in a line: Safety (general statement). Conditions: qualitative statement, no comparator named. From the text: The compound of the general formula [1] of the present invention has excellent safety. The safety can be evaluated by various tests, for example, by various types of safety tests selected from a cytotoxicity test, a selectivity test against DNA gyrase of human and various bacteria, a selectivity test against topoisomerase IV of human and various bacteria, an hERG test, a repeat-dose toxicity test, a cytochrome P450 (CYP) activity inhibition test, a metabolic dependence inhibition test, an in vivo mouse micronucleus test, an in vivo rat liver UDS test, and the like.

A short description of series [5]: Metabolic stability (general statement). The format is in vitro ADME. The settings on record: qualitative statement, no comparator named. From the text:
The compound of the general formula [1] of the present invention has excellent metabolic stability. The metabolic stability can be evaluated by various tests, for example, by various types of stability tests selected from a human liver microsome metabolic stability test, a human S9 stability test, and the like.

The nature of series [6]: Tissue distribution (general statement). Conditions: qualitative statement, no comparator named.

For `Cl.Cl.Cl.O=c1ccc2ncc(F)cc2n1CCN1CCC(NCc2cc3c(cn2)OCCO3)CC1` [1-(2-(4-((2,3-dihydro(1,4)dioxino(2,3-c)pyridin-7-ylmethyl)amino)piperidin-1-yl)ethyl)-7-fluoro-1,5-naphthyridin-2(1H)-one trihydrochloride], the hygroscopicity result in series [1] is listed as “nonhygroscopic”.

`COc1cnc2ccc(=O)n(CCN3CCC(NCc4cc5c(cn4)OCCO5)CC3)c2n1` [Example 85, 5-(2-(4-((2,3-dihydro(1,4)dioxino(2,3-c)pyridin-7-ylmethyl)amino)piperidin-1-yl)ethyl-3-methoxypyrido(2,3-b)pyrazin-6(5H)-one hydrochloride]: the MIC in the series with S. aureus F-3095 and in the series on S. aureus FDA209P was 0.0313 µg/mL throughout. Further, in series [2], the “number of surviving mice on 5 days after the infection” value is reported as “four mice out of five”. In addition, the CC50 at 3 days in the series “Cytotoxicity test (XTT)” was not below 51.2 µg/mL. The antimicrobial activity result in series [3] is listed as “higher”. In [4], the safety entry is “higher”. In series [5], the metabolic stability result is reported as “higher”. In [6], the tissue distribution entry is on record as “higher”.
